From patent US20050282818A1, “Ubiquitin ligase inhibitors” (Rigel Pharmaceuticals, Inc., priority 2004, published 2005)
Read-outs that look alike come from different tables or passages of the source.

What was measured:
TRAF6/Uev1A/Ubc13 = target: T1, TRAF6/Uev1A/Ubc13 (Homo sapiens, UniProt Q9Y4K3); assay: TRAF6/Uev1A/Ubc13 plate-based ubiquitin ligase assay; type: biochemical
T1 sequence (Q9Y4K3 1-522): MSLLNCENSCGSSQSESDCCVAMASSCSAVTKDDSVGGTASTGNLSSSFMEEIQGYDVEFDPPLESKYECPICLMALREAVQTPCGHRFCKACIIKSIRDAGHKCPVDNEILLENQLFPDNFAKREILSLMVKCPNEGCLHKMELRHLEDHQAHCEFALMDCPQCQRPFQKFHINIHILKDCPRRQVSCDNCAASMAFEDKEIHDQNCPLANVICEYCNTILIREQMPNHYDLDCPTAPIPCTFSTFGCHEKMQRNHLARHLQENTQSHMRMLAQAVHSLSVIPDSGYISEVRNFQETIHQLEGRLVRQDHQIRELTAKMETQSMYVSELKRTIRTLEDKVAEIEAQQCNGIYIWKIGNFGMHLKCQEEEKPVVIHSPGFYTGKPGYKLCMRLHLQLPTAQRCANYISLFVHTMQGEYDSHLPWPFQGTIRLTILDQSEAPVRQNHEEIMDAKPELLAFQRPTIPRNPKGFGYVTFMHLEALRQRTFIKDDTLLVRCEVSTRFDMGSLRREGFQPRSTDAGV
Description: For the assays described below, the TRAF6/Uev1A/UBC13 assay is the biochemical plate-based assay of TRAF6 ligase activity using Ubc13 as the E2 enzyme. The gel-based assay is the biochemical solution-based TRAF6 ligase assay (by SDS-PAGE and Western blot) to confirm the plate-based ELISA assay. The APC assay is an assay which is another E3 ligase (APC2/APC11) biochemical assay.
A 96-well Ni-plate was blocked with 100 μl of 1% casein in PBS for 1 hour at room temperature. The plates were then washed three times with 200 μl of 1×PBS and 80 μl of a reaction buffer was added per well which contained 50 ng of Flag-ubiquitin, 50 ng of His-ubiquitin, 62.5 mM Tris pH 7.5, 6.25 mM MgCl2, 1.0 mM DTT, and 2 μM ATP. To each well was added 10 μl of a solution of the compound in DMSO. The reaction was started by adding 10 μl of a solution consisting of 10 ng human E1, 25 ng each of Uev1a and Ubc13, and 100 ng TRAF6 in the reaction buffer. The plates were shaken for 10 minutes and incubate at room temperature for 1 hour. After the incubation, the plates were washed three times with 200 μl 1×PBS in 0.05% Tween and 100 μl of an antibody mix consisting of anti-Flag (1:30,000 dilution; Sigma F-3165) and anti-Mouse IgG-HRP (1/150,000 dilution; Jackson Immunoresearch #115-035-146) in 1×PBS with 0.25% BSA. The plates were then incubated for another 1 hour at room temperature, and after incubation the plate was washed three times with 200 μl 1×PBS with 0.05% Tween. The amount of ubiquitin was measured by adding 100 μl of Lumino substrate (1:5 dilution) and reading the luminescence with a fluorimeter.
Table 2 below illustrates the inhibitory activity of the compounds of the invention determined by the TRAF6/Uev1A/Ubc13 assay as well as in the ICAM, APC and the ROC1/CUL1 Ubiquitin Ligase Assay (SCF Assay). The IC50 values were determined using a various concentrations of the compounds.

A549 cells = assay: Cell proliferation PAD assay, A549; type: cell-based; conditions: Homo sapiens, 48 hours
Description: (§1) Cell lines used are available from American Type Culture Collection (ATCC), for example, cell cultures containing A549 (ATCC# CCL-185), HeLa (ATCC# CCL-2), HCT116 ATTC# CCL-247), and H1299 (ATCC# CRL-5803) cells were maintained in T175 flasks following the ATCC recommended media and handling procedures. […] A 20,000 cells/ml solution was made for plating. Cells were plated in black Packard 96 well plates by placing 100 μl per well (2,000 cells per well). […] The definitions of the cell types used are as follows: A549 is lung carcinoma; HI 299 is non-small cell lung carcinoma; HI 155 is non-small cell lung carcinoma; AsPC-1 is pancreatic adenocarcinoma; Caov-3 is ovarian adenocarcinoma; COLO 205 is colorectal adenocarcinoma; DLD-1 colorectal adenocarcinoma; HCT116 is colorectal carcinoma; DU 145 is prostate carcinoma; ES-2 is ovarian clear cell carcinoma; H460 is large cell lung carcinoma; HELA is cervical adenocarcinoma; MIA PaCa-2 is pancreatice carcinoma; OVCAR-3 is ovarian adenocarcinoma; OVCAR8 is ovarian carcinoma; PC3 is prostate adenocarcinoma; SK-OV-3 is ovarian adenocarcinoma; SU86.86 is pancreatic carcinoma; TOV-21G is avarian clear cell carcinoma; U2OS is bone osteosarcoma; is ASPC-I is pancreatic adenocarcinoma; BXPC-3 is pabcreatic adenocarcinoma; HL60 is promyeloblast promyelocytic leukemia; K562 is bone marrow chronic myelogenous leukemia; L1210 is mouse lymphocytic leukemia; MOLT3 is T lymphoblast acute lymphoblastic leukemia; MOLT4 is T lymphoblast acute lymphoblastic leukemia; SW620 is colorectal adenocarcinoma; THP-1 is monocyte acute monocytic leukemia; U937 is histiocytic lymphoma; and UACC-257 is melanoma.
(§2) Compounds and additional media were added 24 hours after cell plating. […] All compound testing was done in duplicate using 6.3 fold dilutions starting with 10 mM. […] Taxol and at least one additional control were run on all plates. Three microliters of the compound master plate were added to deep well blocks containing 750 μl of RPMI media. One hundred microliters were transferred from the compound/media deep well blocks to the plated cells resulting in a 500 fold dilution of the compounds. Cells were grown at 37° C., 5% CO2 for 48 hours.
(§3) Cells to be analyzed by photography were fixed and stained. One hundred microliters of media were removed and 100 μl of 9.3% formamide was added to each well. Plates were left on the benchtop for 45 minutes. A staining solution containing 1.55 μl of 1 mg/ml DAPI added to 18.75 ml PBS was warmed for 15 minutes at 37° C. The cells were aspirated prior to washing with 100 μl of PBS. Seventy microliters of PBS were aspirated and 170 μl of the DAPI solution were added to each well of fixed cells. Plates were left at room temperature for one hour then aspirated and washed twice with 100 μl of PBS. The stained cells were left at 4° C. for a minimum of 16 hours before photographic analysis with Array Scan II (Cellomics). Analysis of the photographic images to determine numbers of live cells (proliferation), apoptotic cells and dead cells, were according to the methods described in U.S. Utility patent application Ser. No. 10/652,440, which incorporated herein in its entirety.

H1299 cells = assay: Cell proliferation PAD assay, H1299; type: cell-based; conditions: Homo sapiens, 48 hours
Description: as §1, §2, §3

[1] = NCI-H1299, 3pt, read-out: H1299 3pt

| Structure (SMILES) | IC50 (TRAF6/Uev1A/Ubc13) | IC50 (A549 cells; 3pt, read-out: A549 3pt) | IC50 (H1299 cells; [1]) | IC50 (A549 cells; 6pt, read-out: A549 6pt) | IC50 (H1299 cells; NCI-H1299, 6pt, read-out: H1299 6pt) |
| --- | --- | --- | --- | --- | --- |
| Cc1cc(N2CCN(c3ccc([N+](=O)[O-])c4nonc34)CC2)c2ccccc2n1 [compound 152, 2-methyl-4-[4-(7-nitro-2,1,3-benzoxadiazol-4-yl)piperazin-1-yl]quinoline] | ≥ 20 µM | 1 to 20 µM | 1 to 20 µM | – | – |
| CC1CN(c2ccc([N+](=O)[O-])c3nonc23)CC(C)O1 (stereo not shown) [compound 161, 4-(2,6-dimethylmorpholin-4-yl)-7-nitro-2,1,3-benzoxadiazole] | ≥ 20 µM | ≥ 20 µM | ≥ 20 µM | – | – |
| O=[N+]([O-])c1ccc(N2CCC(Oc3ccccc3C(F)(F)F)CC2)c2nonc12 [compound 233, 4-nitro-7-{4-[2-(trifluoromethyl)phenoxy]piperidin-1-yl}-2,1,3-benzoxadiazole] | < 1 µM | ≥ 20 µM | ≥ 20 µM | – | – |
| CC1CN(S(=O)(=O)c2ccc(Sc3cccc4cccnc34)c3nonc23)CC(C)O1 (stereo not shown) [compound 213, 8-({7-[(2,6-dimethylmorpholin-4-yl)sulfonyl]-2,1,3-benzoxadiazol-4-yl}thio)quinoline] | ≥ 20 µM | 1 to 20 µM | ≥ 20 µM | – | – |
| Nc1ccc(N2CCN(c3ncc(C(F)(F)F)cc3Cl)CC2)c2nonc12 [compound 279, 7-{4-[3-chloro-5-(trifluoromethyl)pyridin-2-yl]piperazin-1-yl}-2,1,3-benzoxadiazol-4-amine] | ≥ 20 µM | 1 to 20 µM | 1 to 20 µM | – | – |
| CN1CCN(S(=O)(=O)c2ccc(Sc3cccc4cccnc34)c3nonc23)CC1 [compound 191, 8-({7-[(4-methylpiperazin-1-yl)sulfonyl]-2,1,3-benzoxadiazol-4-yl}thio)quinoline] | ≥ 20 µM | 1 to 20 µM | 1 to 20 µM | – | – |
| Cc1ccnc(N2CCN(c3ccc([N+](=O)[O-])c4nonc34)CC2)c1 [compound 154, 4-[4-(4-methylpyridin-2-yl)piperazin-1-yl]-7-nitro-2,1,3-benzoxadiazole] | ≥ 20 µM | ≥ 20 µM | ≥ 20 µM | – | – |
| O=[N+]([O-])c1ccc(N2CCN(CCN3CCOCC3)CC2)c2nonc12 [compound 85, 4-[4-(2-morpholin-4-ylethyl)piperazin-1-yl]-7-nitro-2,1,3-benzoxadiazole] | ≥ 20 µM | ≥ 20 µM | ≥ 20 µM | – | – |
| O=S(=O)(Nc1cccc2nsnc12)c1cc(F)c(F)c(F)c1 [compound 71, N-2,1,3-benzothiadiazol-4-yl-3,4,5-trifluorobenzenesulfonamide] | – | 1 to 20 µM | ≥ 20 µM | – | – |

Further lines, results first:

| IC50 (TRAF6/Uev1A/Ubc13) | IC50 (A549 cells; 3pt, read-out: A549 3pt) | IC50 (H1299 cells; [1]) | IC50 (A549 cells; 6pt, read-out: A549 6pt) | IC50 (H1299 cells; NCI-H1299, 6pt, read-out: H1299 6pt) | Structure (SMILES) |
| --- | --- | --- | --- | --- | --- |
| ≥ 20 µM | ≥ 20 µM | ≥ 20 µM | – | – | Nc1ccc2cnn(S(=O)(=O)c3ccc(Cl)c4nonc34)c2c1 [compound 221, 1-[(7-chloro-2,1,3-benzoxadiazol-4-yl)sulfonyl]-1H-indazol-6-amine] |
| ≥ 20 µM | ≥ 20 µM | ≥ 20 µM | – | – | O=S(=O)(Nc1ccc(Oc2ccc(Cl)cc2)cc1)c1cccc2nonc12 [compound 104, N-[4-(4-chlorophenoxy)phenyl]-2,1,3-benzoxadiazole-4-sulfonamide] |
| ≥ 20 µM | ≥ 20 µM | ≥ 20 µM | – | – | O=S(=O)(Nc1cccc2nonc12)c1ccc(Oc2ccncc2)cc1 [compound 80, N-2,1,3-benzoxadiazol-4-yl-4-(pyridin-4-yloxy)benzenesulfonamide] |
| ≥ 20 µM | – | – | ≥ 20 µM | ≥ 20 µM | CC(C)(C)c1ccc(-c2cccc3nonc23)cc1 [compound 307, 4-(4-Tert-butylphenyl)-2,1,3-benzoxadiazole] |
| ≥ 20 µM | ≥ 20 µM | ≥ 20 µM | – | – | O=S(=O)(Nc1ccc(Oc2ncc(C(F)(F)F)cc2Cl)cc1)c1cccc2nonc12 [compound 62, N-(4-{[3-chloro-5-(trifluoromethyl)pyridin-2-yl]oxy}phenyl)-2,1,3-benzoxadiazole-4-sulfonamide] |
| – | ≥ 20 µM | ≥ 20 µM | – | – | O=[N+]([O-])c1ccc(NS(=O)(=O)c2cccc3nonc23)cc1 [compound 65, N-(4-nitrophenyl)-2,1,3-benzoxadiazole-4-sulfonamide] |
| – | ≥ 20 µM | ≥ 20 µM | – | – | O=S(=O)(Nc1ccc(F)c(F)c1)c1cccc2nonc12 [compound 23, N-(3,4-difluorophenyl)-2,1,3-benzoxadiazole-4-sulfonamide] |
| – | ≥ 20 µM | ≥ 20 µM | – | – | O=S(=O)(Nc1cccc2nsnc12)c1ccc(CBr)cc1 [compound 98, N-2,1,3-benzothiadiazol-4-yl-4-(bromomethyl)benzenesulfonamide] |
| – | ≥ 20 µM | ≥ 20 µM | – | – | O=S(=O)(c1cccc2nonc12)N1CCN(c2cccc(C(F)(F)F)c2)CC1 [compound 125, 4({4-[3-(trifluoromethyl)phenyl]piperazin-1-yl}sulfonyl)-2,1,3-benzoxadiazole] |
| – | ≥ 20 µM | ≥ 20 µM | – | – | O=S(=O)(Nc1ccncc1)c1cccc2nonc12 [compound 68, N-pyridin-4-yl-2,1,3-benzoxadiazole-4-sulfonamide] |
| – | ≥ 20 µM | ≥ 20 µM | – | – | Cc1ccc(NS(=O)(=O)c2cccc3nonc23)c(Cl)c1 [compound 54, N-(2-chloro-4-methylphenyl)-2,1,3-benzoxadiazole-4-sulfonamide] |
| – | ≥ 20 µM | ≥ 20 µM | – | – | O=S(=O)(Nc1ccc(N2CCOCC2)c(Cl)c1)c1cccc2nonc12 [compound 66, N-(3-chloro-4-morpholin-4-ylphenyl)-2,1,3-benzoxadiazole-4-sulfonamide] |
